Results as given in patent US20260297042A1, “BIARYLAMIDE DERIVATIVES AND THEIR USE AS PKMYT1 INHIBITORS” (CANCER RESEARCH TECHNOLOGY LIMITED, priority 2023, published 2026).

How the values were obtained:
WEE1 = target: T1, WEE1 (Homo sapiens, UniProt P30291); assay: Selectivity versus WEE1 assay (ADP-Glo enzymatic assay); assay type: biochemical; conditions: banded; for IC50: ADP-Glo, 15 nM WEE1, 60 minutes at 26° C.; for PKMYT1 vs. WEE1 selectivity: fold difference in selectivity for PKMYT1 over WEE1, ">N" = at least in this band but could be higher
T1 construct: purchased Thermo Fisher PR7373A
T1 sequence (P30291 whole entry): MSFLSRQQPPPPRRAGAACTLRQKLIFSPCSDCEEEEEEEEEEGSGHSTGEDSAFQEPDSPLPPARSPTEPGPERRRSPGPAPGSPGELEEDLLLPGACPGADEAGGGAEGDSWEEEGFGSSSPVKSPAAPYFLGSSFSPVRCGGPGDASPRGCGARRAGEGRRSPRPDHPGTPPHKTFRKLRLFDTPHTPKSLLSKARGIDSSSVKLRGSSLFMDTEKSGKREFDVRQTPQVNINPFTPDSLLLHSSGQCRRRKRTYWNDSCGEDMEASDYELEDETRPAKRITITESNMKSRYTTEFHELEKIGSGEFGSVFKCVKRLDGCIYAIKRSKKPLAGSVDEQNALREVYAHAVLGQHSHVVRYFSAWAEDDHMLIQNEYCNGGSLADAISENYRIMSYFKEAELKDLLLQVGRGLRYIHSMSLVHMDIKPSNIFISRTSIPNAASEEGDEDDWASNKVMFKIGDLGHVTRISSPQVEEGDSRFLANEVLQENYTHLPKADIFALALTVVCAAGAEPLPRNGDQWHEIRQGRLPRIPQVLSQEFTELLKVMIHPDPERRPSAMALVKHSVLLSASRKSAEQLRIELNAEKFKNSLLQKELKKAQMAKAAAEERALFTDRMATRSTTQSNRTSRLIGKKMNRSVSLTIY
Procedure, shortened: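 Same format as the PKMYT1 assay: WEE1 at 15 nM final with 30 µM ATP, 60 min at 26° C, ADP-Glo luminescence detection, IC50 by dose-response fitting.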

Human PKMYT1 = target: T2, Human PKMYT1 (Homo sapiens, UniProt Q99640); assay: PKMYT1 biochemical ADP-Glo enzymatic assay; conditions: ADP-Glo; 15 nM PKMYT1 kinase domain, 500 µM ATP, 60 minutes at 26° C.; banded
T2 construct: Human PKMYT1 75-362 was cloned as a TEV cleavable 6xHis fusion; 6xHis (TEV cleavable) (cleaved yes); made in house; host or cells: bacterial cells
T2 sequence (Q99640 75-362): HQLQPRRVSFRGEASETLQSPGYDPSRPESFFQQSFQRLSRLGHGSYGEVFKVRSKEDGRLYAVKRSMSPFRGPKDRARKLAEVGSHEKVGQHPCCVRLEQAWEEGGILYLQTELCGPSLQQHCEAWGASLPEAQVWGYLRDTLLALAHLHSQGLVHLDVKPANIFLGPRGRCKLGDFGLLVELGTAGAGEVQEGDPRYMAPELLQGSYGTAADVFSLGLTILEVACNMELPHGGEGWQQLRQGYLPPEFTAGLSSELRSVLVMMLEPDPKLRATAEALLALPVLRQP
Procedure, shortened: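 Measures inhibition of PKMYT1 autonomous ATP hydrolysis: bacterially expressed human enzyme (75-362, tag cleaved) at 15 nM with 500 µM ATP for 60 min at 26 °C, then ADP-Glo Max detection. IC50s accepted only when replicates agreed within 3-fold and curve r2 exceeded 0.9.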

Row | SMILES | IC50 (WEE1) | PKMYT1 vs. WEE1 selectivity (WEE1) | IC50 (Human PKMYT1)
1 | Cc1ccc(O)c(C)c1NC(=O)c1cnc(Nc2ccc(NC(=O)CC(C)C)cn2)s1 [BAA-299, N-(3-hydroxy-2,6-dimethylphenyl)-2-((5-(3-methylbutanamido)pyridin-2-yl)amino)thiazole-5-carboxamide] | 1000 to 11000 nM | X (100-<1000 fold) | < 50 nM
2 | Cc1ccc(O)c(C)c1NC(=O)c1cnc(Nc2nc(C)c(-c3cc(F)cc(F)c3)c(C)n2)s1 [BAA-301, 2-((5-(3,5-difluorophenyl)-4,6-dimethylpyrimidin-2-yl)amino)-N-(3-hydroxy-2,6-dimethylphenyl)thiazole-5-carboxamide] | > 11000 nM | X (100-<1000 fold) | 50 to 1000 nM
3 | Cc1ccc(O)c(C)c1NC(=O)c1cnc(Nc2cc(C(F)(F)F)nc(OCC(F)(F)F)n2)s1 [BAA-318, N-(3-hydroxy-2,6-dimethylphenyl)-2-((2-(2,2,2-trifluoroethoxy)-6-(trifluoromethyl)pyrimidin-4-yl)amino)thiazole-5-carboxamide] | > 11000 nM | Y (1000-5000 fold) | 50 to 1000 nM
4 | Cc1ccc(O)c(C)c1NC(=O)c1cnc(NCc2ccccc2)s1 [BAA-344, 2-(benzylamino)-N-(3-hydroxy-2,6-dimethylphenyl) thiazole-5-carboxamide] | > 11000 nM | Y (1000-5000 fold) | 50 to 1000 nM
5 | Cc1ccc(O)c(C)c1NC(=O)c1cnc(NCc2cccnc2)s1 [BAA-345, N-(3-hydroxy-2,6-dimethylphenyl)-2-((pyridin-3-ylmethyl)amino)thiazole-5-carboxamide] | > 11000 nM | Y (1000-5000 fold) | 50 to 1000 nM
6 | Cc1ccc(O)c(C)c1NC(=O)c1cnc(NCc2cccc(O)c2)s1 [BAA-346, N-(3-hydroxy-2,6-dimethylphenyl)-2-((3-hydroxybenzyl)amino)thiazole-5-carboxamide] | > 11000 nM | Y (1000-5000 fold) | < 50 nM
7 | Cc1ccc(O)c(C)c1NC(=O)c1cnc(NCC2CC2)s1 [BAA-347] | > 11000 nM | X (100-<1000 fold) | 50 to 1000 nM
8 | Cc1ccc(O)c(C)c1NC(=O)c1cnc(NCc2ccn(C)n2)s1 [BAA-348, N-(3-hydroxy-2,6-dimethylphenyl)-2-(((1-methyl-1H-pyrazol-3-yl)methyl)amino) thiazole-5-carboxamide] | > 11000 nM | X (100-<1000 fold) | 50 to 1000 nM
9 | Cc1ccc(O)c(C)c1NC(=O)c1cnc(NCc2ccccn2)s1 [BAA-349, N-(3-hydroxy-2,6-dimethylphenyl)-2-((pyridin-2-ylmethyl)amino) thiazole-5-carboxamide] | > 11000 nM | X (100-<1000 fold) | 50 to 1000 nM
10 | Cc1ccc(O)c(C)c1NC(=O)c1cnc(N[C@@H](C)c2ccccc2)s1 [BAA-351, (S)-N-(3-hydroxy-2,6-dimethylphenyl)-2-((1-phenylethyl)amino) thiazole-5-carboxamide] | > 11000 nM | W (10-<100 fold) | 1000 to 11000 nM
11 | COc1ccc(CNc2ncc(C(=O)Nc3c(C)ccc(O)c3C)s2)cc1 [BAA-352, N-(3-hydroxy-2,6-dimethylphenyl)-2-((4-methoxybenzyl)amino)thiazole-5-carboxamide] | > 11000 nM | X (100-<1000 fold) | 50 to 1000 nM
12 | Cc1ccc(O)c(C)c1NC(=O)c1cnc(NC2Cc3ccccc3C2)s1 [BAA-353, 2-((2,3-dihydro-1H-inden-2-yl)amino)-N-(3-hydroxy-2,6-dimethylphenyl)thiazole-5-carboxamide] | > 11000 nM | W (10-<100 fold) | 1000 to 11000 nM
13 | Cc1ccc(O)c(C)c1NC(=O)c1cnc(N[C@H](C)c2ccccc2)s1 [BAA-354, (R)-N-(3-hydroxy-2,6-dimethylphenyl)-2-((1-phenylethyl)amino) thiazole-5-carboxamide] | > 11000 nM | W (10-<100 fold) | 1000 to 11000 nM
14 | COc1ccccc1CNc1ncc(C(=O)Nc2c(C)ccc(O)c2C)s1 [BAA-355, N-(3-hydroxy-2,6-dimethylphenyl)-2-((2-methoxybenzyl)amino) thiazole-5-carboxamide] | > 11000 nM | X (100-<1000 fold) | 50 to 1000 nM
15 | Cc1ccc(O)c(C)c1NC(=O)c1cnc(NCc2ccccc2C2CC2)s1 [BAA-356, 2-((2-cyclopropylbenzyl)amino)-N-(3-hydroxy-2,6-dimethylphenyl)thiazole-5-carboxamide] | > 11000 nM | W (10-<100 fold) | 1000 to 11000 nM

Results, then the compound that gave them:

Row | IC50 (WEE1) | PKMYT1 vs. WEE1 selectivity (WEE1) | IC50 (Human PKMYT1) | SMILES
16 | > 11000 nM | X (100-<1000 fold) | 50 to 1000 nM | Cc1ccc(O)c(C)c1NC(=O)c1cnc(Nc2ccc3cc(Br)ccc3n2)s1 [BAA-300, 2-((6-bromoquinolin-2-yl)amino)-N-(3-hydroxy-2,6-dimethylphenyl)thiazole-5-carboxamide]
17 | > 11000 nM | X (100-<1000 fold) | 50 to 1000 nM | Cc1ccc(O)c(C)c1NC(=O)c1cnc(Nc2ccc(NC(=O)c3c(F)cc(F)cc3F)cn2)s1 [BAA-302, N-(3-hydroxy-2,6-dimethylphenyl)-2-((5-(2,4,6-trifluorobenzamido)pyridin-2-yl)amino)thiazole-5-carboxamide]
18 | > 11000 nM | X (100-<1000 fold) | 50 to 1000 nM | Cc1ccc(O)c(C)c1NC(=O)c1cnc(Nc2ccnc(-c3ccc(F)cc3)c2)s1 [BAA-304, 2-((2-(4-fluorophenyl)pyridin-4-yl)amino)-N-(3-hydroxy-2,6-dimethylphenyl)thiazole-5-carboxamide]
19 | > 11000 nM | W (10-<100 fold) | 1000 to 11000 nM | Cc1ccc(O)c(C)c1NC(=O)c1cnc(Nc2cncc(-c3ccc(F)cc3)c2)s1 [BAA-305, 2-((5-(4-fluorophenyl)pyridin-3-yl)amino)-N-(3-hydroxy-2,6-dimethylphenyl)thiazole-5-carboxamide]
20 | > 11000 nM | X (100-<1000 fold) | 50 to 1000 nM | Cc1ccc(O)c(C)c1NC(=O)c1cnc(Nc2ccc(Nc3ccc(F)cc3)cn2)s1 [BAA-310, 2-((5-((4-fluorophenyl)amino)pyridin-2-yl)amino)-N-(3-hydroxy-2,6-dimethylphenyl)thiazole-5-carboxamide]
21 | > 11000 nM | X (100-<1000 fold) | 50 to 1000 nM | Cc1cc(Nc2ccc(F)cc2)nnc1Nc1ncc(C(=O)Nc2c(C)ccc(O)c2C)s1 [BAA-324, 2-((6-((4-fluorophenyl)amino)-4-methylpyridazin-3-yl)amino)-N-(3-hydroxy-2,6-dimethylphenyl)thiazole-5-carboxamide]
22 | 1000 to 11000 nM | W (10-<100 fold) | 50 to 1000 nM | Cc1ccc(O)c(C)c1NC(=O)c1cnc(Nc2cc3ccc(O)cn3n2)s1 [BAA-343, N-(3-Hydroxy-2,6-dimethylphenyl)-2-((6-hydroxypyrazolo[1,5-a]pyridin-2-yl)amino)thiazole-5-carboxamide]
23 | > 11000 nM | Y (1000-5000 fold) | 50 to 1000 nM | Cc1ccc(O)c(C)c1NC(=O)c1cnc(NCc2ccncc2)s1 [BAA-350, N-(3-hydroxy-2,6-dimethylphenyl)-2-((pyridin-4-ylmethyl)amino) thiazole-5-carboxamide]
